Several values for one entry are separate records, joined by “and”; a condition that tells them apart may be missing. Equal values may be shown once.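 Step 1: Grow cells in 96-well plates. Step 2: Expose to compound for 48 hours at 5 concentrations. Step 3: Interpolate endpoints linearly; if unreached, use highest concentration. GI50 = concentration required for 50% inhibition of growth. TGI is the concentration that stops growth completely.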
Assays:
Assay in all cases: DTP human tumour cell line panel, 48 h
OVCAR-8 ovarian = tested on: OVCAR-8 ovarian
OVCAR-5 ovarian = tested on: OVCAR-5 ovarian
XF 498 CNS = tested on: XF 498 CNS
LXFL 529 NSCLC = tested on: LXFL 529 NSCLC
UO-31 renal = tested on: UO-31 renal
OVCAR-3 ovarian = tested on: OVCAR-3 ovarian
SNB-75 CNS = tested on: SNB-75 CNS
A498 renal = tested on: A498 renal
SR leukemia = tested on: SR leukemia
HS 578T breast = tested on: HS 578T breast
DU-145 prostate = tested on: DU-145 prostate

Row | SMILES | TGI (OVCAR-8 ovarian) | TGI (OVCAR-5 ovarian) | TGI (XF 498 CNS) [µM] | TGI (LXFL 529 NSCLC) [µM] | TGI (UO-31 renal) | TGI (OVCAR-3 ovarian) | TGI (SNB-75 CNS) | TGI (A498 renal) [µM] | TGI (SR leukemia) [µM] | TGI (HS 578T breast) [µM] | TGI (DU-145 prostate) [µM] | GI50 (OVCAR-8 ovarian) [µM] | GI50 (OVCAR-5 ovarian) [µM] | GI50 (UO-31 renal) [µM] | GI50 (OVCAR-3 ovarian) [µM] | GI50 (SNB-75 CNS) [µM] | GI50 (A498 renal) [µM] | GI50 (SR leukemia) [µM] | GI50 (DU-145 prostate) [µM] | GI50 (HS 578T breast) [µM]
1 | NCc1cccc(O)c1O | > 100 µM | > 100 µM | > 100 | > 100 | > 100 µM | > 100 µM | > 100 µM | > 100 | > 100 |  |  |  |  |  |  |  |  |  |  | 
2 | CN(C)CCCNc1ccc2nnn3c4ccc(O)cc4c(=O)c1c23 | 17.6 µM | 23.2 µM |  | 20.1 | 9.79 µM | 23 µM | 20.2 µM | 20.1 | 3.61 | 13.3 | 18.6 |  |  |  |  |  |  |  |  | 
3 | O=C1c2c(O)cccc2-c2nn(CCNCCO)c3ccc(NCCNCCO)c1c23 | 4.24 µM | 2.85 µM | 0.379 | 1.14 | 10.2 µM | 5.86 µM | 1.14 µM | 0.578 | 3 | 0.535 | 0.0707 |  |  |  |  |  |  |  |  | 
4 | O=C1CC(=O)n2cnc3cccc(c32)N1 | > 100 µM | > 100 µM |  |  | > 100 µM | > 100 µM | > 100 µM | > 100 | > 100 | > 100 | > 100 |  |  |  |  |  |  |  |  | 
5 | Cc1nc(N)c(N2CCN(CN)CC2)c(=O)[nH]1 | > 100 µM | > 100 µM |  |  | > 100 µM | > 100 µM | > 100 µM | > 100 | > 100 | > 100 | > 100 |  |  |  |  |  |  |  |  | 
6 | CC1=NN(C(=O)c2ccc(Cl)cc2)C(=O)/C1=C/c1ccccc1O | > 100 µM | > 100 µM | > 100 | > 100 | > 100 µM | > 100 µM |  | > 100 |  |  |  |  |  |  |  |  |  |  |  | 
7 | N#Cc1cc2c(n(C3OC(CO)C(O)C(O)C3O)c1=S)CCCCCC2 (configuration not stated) | > 100 µM | > 100 µM |  |  | > 100 µM | > 100 µM | > 100 µM | > 100 | > 100 | > 100 | > 100 |  |  |  |  |  |  |  |  | 
8 | CC1=C2C(=CO[C@H](C)[C@H]2C)C(=O)C(C(=O)O)=C1O | 43.3 µM and 35.2 µM | 73 µM and 128 µM | 13.6 |  | 106 µM and 50.6 µM | 43.2 µM and 47 µM | 111 µM and > 62.1 µM |  | 66.7 | 96.4 | 68.3 | 19.8 | 29.5 | 22.3 | 20.2 | 21.2 | 32.7 |  |  | 
9 | O=C(CCN1CCN2c3ccccc3CCC2C1)c1ccc(F)cc1 (configuration not stated) | > 100 µM | 62.2 µM |  |  | 40.8 µM | 71.4 µM | 44.8 µM | > 100 | > 100 | > 100 | 90.3 |  |  |  |  |  |  |  |  | 
10 | COc1ccc(/C(Cl)=C/c2cc(OC)ccc2OC)cc1 | > 100 µM |  | > 100 | > 100 | > 100 µM |  | > 100 µM | > 100 | > 100 |  |  |  |  |  |  |  |  |  |  | 
11 | O=C1OC[C@H]2[C@@H]1[C@H]1O[C@@H]2C2=C(CCC2)C1=O | > 100 µM | > 100 µM |  |  | > 100 µM | > 100 µM | > 100 µM | > 100 | > 100 | > 100 | > 100 |  |  |  |  |  |  |  |  | 
12 | CC(Oc1ccccc1Cl)C(=O)NN1C(=O)CSC1c1ccccc1 (configuration not stated) | > 100 µM | > 100 µM |  |  | > 100 µM | > 100 µM | > 100 µM | > 100 | > 100 | > 100 | > 100 |  |  |  |  |  |  |  |  | 
13 | CC(C)C(C/C=C1\CC(CO)(COC(=O)C2CCCCC2)OC1=O)C(C)C (configuration not stated) | 35.8 µM | 41.8 µM |  |  | 32.1 µM | 35.7 µM | 26.5 µM | > 100 | > 100 | 31.8 | 26.9 |  |  |  |  |  |  |  |  | 
14 | O=C(Nn1c(-c2ccccc2)nc2ccccc2c1=O)c1ccccc1O | > 100 µM | > 100 µM |  |  | > 100 µM | > 100 µM | > 100 µM | > 100 | > 100 | > 100 | > 100 |  |  |  |  |  |  |  |  | 
15 | Cc1cc2c([nH]c3ccccc32)c(O)c1-c1c(C)cc2c([nH]c3ccccc32)c1O | 30.4 µM | 29 µM |  |  | 25.7 µM | 29.3 µM | 27.5 µM | 29.4 | 16 | 32.7 | 25.7 |  | 15 | 13 |  |  | 15.9 | 3.16 |  | 
16 | COc1cc(C2c3cc4c(cc3C3OC[C@@H]2C3CO)OCO4)cc(OC)c1OC (some centres not stated) | > 100 µM | > 100 µM |  |  | > 100 µM | 97.9 µM | > 100 µM | > 100 | > 100 | 95.7 | > 100 |  |  |  | 23.9 |  |  |  | 30.4 | 
17 | C/C(=N\NC(=S)N(C)C)c1cccnn1 | > 100 µM | > 57.3 µM |  |  | 5.04 µM | > 100 µM | > 100 µM | 10.7 | > 20.3 | > 100 | > 100 |  |  |  |  |  |  |  |  | 
18 | O=C1NC(=O)C(C(CC(=O)c2ccc(Cl)cc2)c2ccc(Cl)cc2)C(=O)N1 (configuration not stated) | > 100 µM | > 100 µM |  |  | > 100 µM | > 100 µM | > 100 µM | > 100 | > 100 | > 100 | > 100 |  |  |  |  |  |  |  |  | 
19 | CN(C)CCn1c(CO)nc2c1c(=O)n(C)c(=O)n2C | > 100 µM | > 100 µM |  |  | > 100 µM | > 100 µM | > 100 µM | > 100 | > 100 | > 100 | > 100 |  |  |  |  |  |  |  |  | 
20 | CN(C)Cc1cc(C(=O)/C=C/c2ccccc2)cc(CN(C)C)c1O | 99.8 µM | > 100 µM |  |  | 40.7 µM | 99.1 µM | > 100 µM | 78.6 | 59.1 | > 100 | > 100 |  |  |  |  |  |  |  |  | 
21 | CN=C(/N=c1\ssc(=NC)n1C)N(C)C | > 100 µM | > 100 µM | > 100 | > 100 | > 100 µM | > 100 µM | > 100 µM | > 100 | > 100 |  |  |  |  |  |  |  |  |  |  | 
22 | O=C1C=CC(=O)c2c(O)c(NCCOCCO)c(Cl)c(O)c21 | 20.4 µM | 34.1 µM |  | 20.4 | 29.7 µM |  | 30.9 µM |  | 37.9 |  |  |  |  |  |  |  |  |  |  | 
23 | CN1CC2=C(NC(=S)NC2c2ccccc2)/C(=C/c2ccccc2)C1 (configuration not stated) | > 10 µM | > 100 µM |  |  | > 100 µM | > 100 µM | > 100 µM | > 100 | > 100 | > 100 | > 100 |  |  |  |  |  |  |  |  | 
24 | CC(C)(C)[Si](C)(C)OCc1cccc(OCCOc2cccc(CO[Si](C)(C)C(C)(C)C)c2[N+](=O)[O-])c1[N+](=O)[O-] | > 100 µM | > 100 µM |  |  | > 100 µM | > 100 µM | > 100 µM | > 100 | > 100 | > 100 | > 100 |  |  |  |  |  |  |  |  | 
25 | CC(=O)NC1C(OCc2ccccc2)OC(CO)C(O)C1OC(C)C(=O)NC(C(=O)NC(CCC(=O)NCCCCNc1c2ccccc2nc2cccc([N+](=O)[O-])c12)C(N)=O)C(C)C (configuration not stated) | 9.62 µM | 19.8 µM |  |  | 13.4 µM | 6.14 µM | 10.5 µM | 4.74 | 2.61 | 42.6 | 19.6 |  |  |  |  |  |  |  |  | 
26 | Cc1ccccc1-c1nc2c(C(=O)NCCN(C)C)cccc2[nH]1 | > 100 µM | > 100 µM | > 100 |  | 68.7 µM | > 100 µM | > 100 µM | > 100 |  |  |  |  |  |  |  |  |  |  |  | 
27 | O=C(Nc1ccccc1C(=O)NCc1ccccc1)/C(=C/c1ccccc1)NC(=O)c1ccccc1 | > 100 µM | > 100 µM |  |  | > 100 µM | > 100 µM | > 100 µM | > 100 | > 100 | > 100 | > 100 |  |  |  |  |  |  |  |  | 
28 | COc1ccc2[nH]c(O)c(/C=c3/cc4c(c(-c5ccc(F)c(OC)c5)n3)=Nc3ccccc3-4)c2c1 | 11.8 µM | 10.8 µM |  |  | 18.8 µM | 3.58 µM | 3.56 µM | 19.2 | 6.96 | 5.04 | 32.6 | 3.22 | 3.56 | 3.86 | 1.99 | 1.56 | 4.42 | 1.86 | 4.11 | 1.87
29 | O=C(c1cccs1)N1CCN(C(=O)c2cccs2)C1=S | 21.4 µM | 30.3 µM |  |  | 8.5 µM | 10.7 µM | 11.7 µM | 32.1 | > 100 | > 100 | 7.7 |  |  |  |  |  |  |  |  | 
30 | COc1cccc(N[C@@H]2c3cc4c(cc3C(c3cc(OC)c(O)c(OC)c3)[C@H]3C(=O)OCC32)OCO4)c1 (some centres not stated) | > 23.1 µM | > 74.2 µM | 23.9 |  | 9.78 µM | 68.6 µM |  | 2.1 |  |  |  |  |  |  |  |  |  |  |  | 
